Results reported in US20090306201A1, “SELECTIVE INHIBITORS FOR TRANSFERASES” (University of Medicine and Dentistry of New Jersey, priority 2006, published 2009).
Structures can show the parent of a compound that is named as a salt. Where two headings read alike, the source gives them in different places.

Experiments:
PRSET-7 = target: T1, PRSET-7 (Homo sapiens, UniProt Q9NQR1); assay: HKMT-inhibitor (HMT) assay, PRSET-7; format: biochemical, Mammalian; conditions: recombinant HKMT, [3H]SAM, histone octamers or oligonucleosomes, average of duplicate
T1 construct: made in house
T1 sequence (Q9NQR1 1-393): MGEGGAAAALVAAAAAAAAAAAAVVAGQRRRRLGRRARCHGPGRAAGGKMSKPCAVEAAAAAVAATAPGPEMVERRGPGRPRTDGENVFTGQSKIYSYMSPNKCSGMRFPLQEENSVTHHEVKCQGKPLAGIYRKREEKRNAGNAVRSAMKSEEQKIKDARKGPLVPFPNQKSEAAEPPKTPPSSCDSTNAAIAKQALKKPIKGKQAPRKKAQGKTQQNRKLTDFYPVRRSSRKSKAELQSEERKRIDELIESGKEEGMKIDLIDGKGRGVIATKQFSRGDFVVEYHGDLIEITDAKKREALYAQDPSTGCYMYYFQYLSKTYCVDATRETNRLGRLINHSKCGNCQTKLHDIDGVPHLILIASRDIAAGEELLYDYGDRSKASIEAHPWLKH
Protocol: (§1) Compounds were initially screened for their ability to inhibit the activity of various lysine methyltransferases in vitro using a biochemical HMT-assay. Mammalian HKMTs were produced and purified as recombinant affinity-tagged proteins using a bacterial or baculovirus expression system.
(§2) The HKMT-inhibitor assay was as follows: In a final reaction volume of 25 μl, 50-100 ng recombinant HKMT protein was incubated at 30° C. for 60 minutes in a reaction buffer containing 50 mM Tris-HCl, pH 8.5, 5 mM MgCl2, 4 mM DTT, 1 μM [^3H]-labeled S-adenosyl-L-methionine ([^3H]SAM, 82.0 Ci/mmol, 1.0 mCi/ml, Amersham Pharmacia Biotech) and 2 μg of substrate (histone octamers or oligonucleosomes). A constant HKMT protein concentration was tested against increasing amounts of compound dissolved in DMSO. As a control an HKMT-inhibitor assay was performed in the presence of 0.5 μl of DMSO (end concentration of DMSO in the reaction= 2%). The reaction was stopped by the addition of 6 μl 5×SDS sample buffer (60 mM Tris-HCl, pH 6.8, 25% glycerol, 2% SDS, 0.05% bromphenol blue, 14.4 mM 6-Mercaptoethanol), and the proteins were separated on a 12% SDS-polyacrylamide gel. Proteins were transferred onto an Immobilon-P membrane (Millipore) and visualized by Coomassie blue staining. The membrane was then sprayed with EN3HANCE (NEN) and exposed to Kodak XAR film overnight. […]

SET7/9 = target: T2, SET7/9 (Homo sapiens, UniProt Q8WTS6); assay: HKMT-inhibitor (HMT) assay, SET7/9; format: biochemical, Mammalian; conditions: recombinant HKMT, [3H]SAM, histone octamers or oligonucleosomes, average of duplicate
T2 construct: made in house
T2 sequence (Q8WTS6 1-366): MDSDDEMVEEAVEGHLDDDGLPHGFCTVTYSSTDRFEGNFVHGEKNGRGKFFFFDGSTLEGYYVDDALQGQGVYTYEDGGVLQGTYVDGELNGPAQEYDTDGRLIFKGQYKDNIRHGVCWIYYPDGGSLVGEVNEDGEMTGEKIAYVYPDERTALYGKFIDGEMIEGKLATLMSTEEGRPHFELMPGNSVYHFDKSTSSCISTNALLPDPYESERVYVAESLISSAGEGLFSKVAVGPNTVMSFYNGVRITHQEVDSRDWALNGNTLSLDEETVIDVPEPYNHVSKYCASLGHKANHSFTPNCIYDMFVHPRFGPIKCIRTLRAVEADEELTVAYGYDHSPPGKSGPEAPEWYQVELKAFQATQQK
Protocol: as §1, §2

G9a = target: T3, G9a (Homo sapiens, UniProt Q96KQ7); assay: HKMT-inhibitor (HMT) assay, G9a; format: biochemical, Mammalian; conditions: recombinant HKMT, [3H]SAM, histone octamers or oligonucleosomes, average of duplicate
T3 construct: made in house
T3 sequence (Q96KQ7 1-1210): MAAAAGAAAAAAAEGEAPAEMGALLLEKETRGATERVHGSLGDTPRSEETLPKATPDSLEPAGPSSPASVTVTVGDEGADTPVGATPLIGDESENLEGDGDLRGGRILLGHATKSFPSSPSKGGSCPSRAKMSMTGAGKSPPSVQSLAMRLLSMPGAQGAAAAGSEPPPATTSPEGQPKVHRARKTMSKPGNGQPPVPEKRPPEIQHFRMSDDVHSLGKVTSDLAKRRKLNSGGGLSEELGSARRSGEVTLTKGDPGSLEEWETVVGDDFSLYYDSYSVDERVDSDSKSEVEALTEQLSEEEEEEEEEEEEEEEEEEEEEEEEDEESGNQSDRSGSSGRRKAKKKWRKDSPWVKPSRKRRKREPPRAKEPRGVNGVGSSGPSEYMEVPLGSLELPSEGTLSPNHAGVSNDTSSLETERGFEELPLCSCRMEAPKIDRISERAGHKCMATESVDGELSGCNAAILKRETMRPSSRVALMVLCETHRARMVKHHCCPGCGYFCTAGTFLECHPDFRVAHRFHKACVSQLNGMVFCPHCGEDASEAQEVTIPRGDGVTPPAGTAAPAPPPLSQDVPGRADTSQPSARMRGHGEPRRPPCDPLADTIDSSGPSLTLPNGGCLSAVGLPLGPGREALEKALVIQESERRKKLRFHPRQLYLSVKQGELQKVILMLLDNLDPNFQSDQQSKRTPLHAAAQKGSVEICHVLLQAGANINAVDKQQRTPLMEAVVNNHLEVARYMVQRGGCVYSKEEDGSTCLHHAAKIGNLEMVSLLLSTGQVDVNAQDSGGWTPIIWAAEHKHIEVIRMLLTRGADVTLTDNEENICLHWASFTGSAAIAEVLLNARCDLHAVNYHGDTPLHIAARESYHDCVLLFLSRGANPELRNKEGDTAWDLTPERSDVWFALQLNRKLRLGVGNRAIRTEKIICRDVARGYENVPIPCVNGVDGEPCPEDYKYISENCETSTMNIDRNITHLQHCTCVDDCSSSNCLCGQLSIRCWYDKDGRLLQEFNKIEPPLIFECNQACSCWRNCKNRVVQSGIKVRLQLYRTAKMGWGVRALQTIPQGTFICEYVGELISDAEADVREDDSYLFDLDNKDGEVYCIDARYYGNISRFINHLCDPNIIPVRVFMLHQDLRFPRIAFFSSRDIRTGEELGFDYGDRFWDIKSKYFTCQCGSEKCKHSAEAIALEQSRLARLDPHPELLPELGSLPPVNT
Protocol: as §1, §2

EZH2 = target: T4, EZH2 (Homo sapiens, UniProt Q15910); assay: HKMT-inhibitor (HMT) assay, EZH2; format: biochemical, Mammalian; conditions: meaning of the pair not explained
T4 construct: made in house
Protocol: as §1
The HKMT-inhibitor assay was as follows: In a final reaction volume of 25 μl, 50-100 ng recombinant HKMT protein was incubated at 30° C. for 60 minutes in a reaction buffer containing 50 mM Tris-HCl, pH 8.5, 5 mM MgCl2, 4 mM DTT, 1 μM [^3H]-labeled S-adenosyl-L-methionine ([^3H]SAM, 82.0 Ci/mmol, 1.0 mCi/ml, Amersham Pharmacia Biotech) and 2 μg of substrate (histone octamers or oligonucleosomes). A constant HKMT protein concentration was tested against increasing amounts of compound dissolved in DMSO. As a control an HKMT-inhibitor assay was performed in the presence of 0.5 μl of DMSO (end concentration of DMSO in the reaction= 2%). The reaction was stopped by the addition of 6 μl 5×SDS sample buffer (60 mM Tris-HCl, pH 6.8, 25% glycerol, 2% SDS, 0.05% bromphenol blue, 14.4 mM 6-Mercaptoethanol), and the proteins were separated on a 12% SDS-polyacrylamide gel. Proteins were transferred onto an Immobilon-P membrane (Millipore) and visualized by Coomassie blue staining. The membrane was then sprayed with EN3HANCE (NEN) and exposed to Kodak XAR film overnight. Coomassie blue stained histone bands were cut from the membrane and subjected to scintillation counting. All assays were performed in duplicate and the average of two experiments was used for the calculation of IC50 values. Only compounds with IC50<10 μM were selected for further experiments.

[1] = tested on: global histone H4 lysine 20 monomethylation (H4K20me1); assay: Global histone lysine methylation pattern in treated cells, immunoblot, H4K20me1; format: cell-based; conditions: HeLa cells, acid-extracted histones, immunoblotting
Protocol: (§3) Compounds that show low IC50 values for specific inhibition of single HKMTs were pre-selected for cell culture based toxicity and growth inhibition. HeLa cells were seeded in a concentration of 1×10^5 cell/ml in Dulbecco's modified Eagle medium supplemented with 10% Bovine serum, 2 mM glutamine, and penicillin-streptomycin solution. After 24 hours, the medium was supplemented with various compound concentrations. After an additional 48 hours, cells were harvested. Viable cells were stained with Trypan-Blue and counted. Based on the number of living cells treated with a compound in comparison to the cell number of cells treated with DMSO, a toxicity index was calculated for each compound.
(§4) Compounds with a low toxicity index were used for cell viability tests (FIG. 3). The cells harvested from this cell viability test were analyzed using two techniques. In the first technique, living cells were counted as described above and growth curves plotted for cells treated with DMSO or a given compound. (FIG. 4). In the second technique, histones were isolated from cells upon treatment of compounds, and their effect on global histone lysine methylation patterns was analyzed. Harvested cells were subjected to an acid extraction procedure for histones. […] Histones were resolved by SDS-PAGE, transferred to nitrocellulose, and analyzed by immunoblotting using histone-modification-state specific antibodies.

H3K27me3 = assay: Global histone lysine methylation pattern in treated cells, immunoblot, other marks (H3K27me3); format: cell-based; conditions: HeLa cells, acid-extracted histones, immunoblotting
Protocol: as §3, §4

[2] = first of two values printed as x/y, read-out: IC50 EZH2 (first value of cell)
[3] = second of two values printed as x/y, read-out: IC50 EZH2 (second value of cell)

T4 sequence (Q15910 whole entry, species assumed): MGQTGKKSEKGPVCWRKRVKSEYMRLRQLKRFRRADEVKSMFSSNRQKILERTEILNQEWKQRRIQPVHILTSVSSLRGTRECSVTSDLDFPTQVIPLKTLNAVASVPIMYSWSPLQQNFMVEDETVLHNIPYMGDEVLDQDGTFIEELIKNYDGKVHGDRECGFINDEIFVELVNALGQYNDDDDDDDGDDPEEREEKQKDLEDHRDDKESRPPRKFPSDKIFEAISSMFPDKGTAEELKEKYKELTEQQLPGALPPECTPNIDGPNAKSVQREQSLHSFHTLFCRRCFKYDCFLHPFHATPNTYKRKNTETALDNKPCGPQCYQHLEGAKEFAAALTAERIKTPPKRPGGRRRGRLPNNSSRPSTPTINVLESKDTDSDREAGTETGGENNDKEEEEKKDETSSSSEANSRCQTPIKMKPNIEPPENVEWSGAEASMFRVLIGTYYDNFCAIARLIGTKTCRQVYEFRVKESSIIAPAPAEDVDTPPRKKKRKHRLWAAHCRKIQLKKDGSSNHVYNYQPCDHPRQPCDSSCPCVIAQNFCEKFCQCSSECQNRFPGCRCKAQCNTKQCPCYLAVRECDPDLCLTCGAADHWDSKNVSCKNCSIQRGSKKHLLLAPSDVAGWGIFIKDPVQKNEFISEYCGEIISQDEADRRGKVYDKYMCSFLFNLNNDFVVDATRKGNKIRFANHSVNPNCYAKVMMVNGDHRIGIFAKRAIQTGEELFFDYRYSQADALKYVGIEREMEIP
T4 sequence (O75530 whole entry partner, species assumed): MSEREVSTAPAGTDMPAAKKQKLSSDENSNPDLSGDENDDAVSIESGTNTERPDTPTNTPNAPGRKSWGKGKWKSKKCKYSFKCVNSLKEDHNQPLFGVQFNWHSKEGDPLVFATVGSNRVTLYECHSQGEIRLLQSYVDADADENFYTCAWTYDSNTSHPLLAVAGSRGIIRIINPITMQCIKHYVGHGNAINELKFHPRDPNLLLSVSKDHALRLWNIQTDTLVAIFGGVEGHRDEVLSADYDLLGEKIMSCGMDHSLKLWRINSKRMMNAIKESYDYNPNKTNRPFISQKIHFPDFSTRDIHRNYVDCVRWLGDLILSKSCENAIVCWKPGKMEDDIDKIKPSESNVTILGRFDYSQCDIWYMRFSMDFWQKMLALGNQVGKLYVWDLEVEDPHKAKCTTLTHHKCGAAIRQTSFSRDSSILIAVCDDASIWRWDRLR
T4 sequence (Q15022 whole entry partner, species assumed): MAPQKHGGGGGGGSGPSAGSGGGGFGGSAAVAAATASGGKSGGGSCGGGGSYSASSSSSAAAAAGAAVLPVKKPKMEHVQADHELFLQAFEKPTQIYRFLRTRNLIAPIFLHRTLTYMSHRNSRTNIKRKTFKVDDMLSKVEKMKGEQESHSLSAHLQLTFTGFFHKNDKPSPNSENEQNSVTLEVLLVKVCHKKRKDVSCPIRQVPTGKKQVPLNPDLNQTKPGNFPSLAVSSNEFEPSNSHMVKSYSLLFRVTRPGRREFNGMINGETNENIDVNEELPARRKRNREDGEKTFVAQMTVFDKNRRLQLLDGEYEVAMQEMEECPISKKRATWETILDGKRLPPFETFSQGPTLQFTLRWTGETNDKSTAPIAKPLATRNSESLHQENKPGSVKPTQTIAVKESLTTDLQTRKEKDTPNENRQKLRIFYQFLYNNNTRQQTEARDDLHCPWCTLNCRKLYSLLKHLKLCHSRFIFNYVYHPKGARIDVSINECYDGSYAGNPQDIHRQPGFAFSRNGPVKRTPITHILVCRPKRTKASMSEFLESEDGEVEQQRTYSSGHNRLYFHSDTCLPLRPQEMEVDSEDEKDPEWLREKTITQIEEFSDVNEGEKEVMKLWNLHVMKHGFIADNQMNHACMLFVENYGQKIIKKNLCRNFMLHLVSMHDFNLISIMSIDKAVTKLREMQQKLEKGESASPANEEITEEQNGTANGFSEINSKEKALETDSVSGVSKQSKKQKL

Row | SMILES | melting point | IC50 (PRSET-7) | IC50 (SET7/9) | IC50 (G9a) | IC50 (EZH2; [2]) | IC50 (EZH2; [3]) | global histone H4 lysine 20 monomethylation (H4K20me1) [1] | other histone methylation marks (e.g. H3K27me3) (H3K27me3)
1 | Nc1ccc2c(O)cc(C(=O)O)cc2c1 (as salt: hydrochloride) [Compound 1a, 7-amino-4-hydroxy-2-naphthoic acid] | > 250 °C (dec.) |  |  |  |  |  |  | 
2 | CCOC(=O)c1cc2c3c(cccc3c1)NC(=O)O2 [Compound 6, ethyl 2,3-dihydro-2-oxonaphtho[1,8-de][1,3]oxazine-8-carboxylate] | > 250 °C (dec.) |  |  |  |  |  |  | 
3 | Nc1cc(S(=O)(=O)O)cc2cc(S(=O)(=O)O)cc(O)c12 [H-acid] |  | 3.8 µM | > 1380 µM | > 500 µM | 3 µM | > 1000 µM |  | 
4 | Cc1cc(O)c(C(C)C)cc1C1(c2cc(C(C)C)c(O)cc2C)OC(=O)c2ccccc21 [Thymolphthalein, thymolphthalein] |  | 9 µM | > 1450 µM | > 1450 µM | 25 µM | 400 µM | reproducible reduction | not affected
